Data reported in publication PMC10288505, “Photoswitchable Calixarene Activators for Controlled Peptide Transport across Lipid Membranes” (Journal of the American Chemical Society, 2023).

Tests used:
hexaarginine (R6) = assay: Indicator displacement assay with host:LCG reporter pair, guest R6; type: binding; details: association constant, competitive dye displacement with LCG, 5 mM phosphate buffer pH 7.3; only the lower limit can be estimated
Source text: The binding affinity of the anionic calixarene activators toward cationic peptides was investigated using a small library of highly hydrophilic oligoarginines, from 3 to 8 residues. These peptides are not able to spontaneously transverse zwitterionic artificial membranes in vesicle assays, which allows the accurate evaluation of the calixarenes 1 and 2 as counterion activators without interferences from the transport of the peptide alone.[43]−[45] First, the formation of host–guest complexes between 1/2 and the selected peptides was verified by indicator displacement assays using lucigenin (LCG) as the fluorescent indicator.[46] As previously reported for other sulfonatocalixarene derivatives,[46] the formation of host–guest binding pairs between calixarenes 1/2 in the E- and Z-forms and LCG results in significant static fluorescence quenching (see Figure 2A and Figures S26 and S27). Quantitative analysis of the fluorescence titration data using a 1:1 host:guest binding model allows the determination of the respective binding constants (K) reported in Table 1. As can be observed, both 1/2 display high affinity for the LCG dye, on the 10^7 M^–1 range, which seems to be independent of the nature and conformation of the azobenzene arm. […] The host:LCG binding pairs were then employed in the above-mentioned indicator displacement assays to investigate the binding affinity of oligoarginines toward 1 and 2 (see Figure 2B and Figures S29–S33).
Figure 2 (A) Fluorescence titration of the lucigenin dye (LCG, 1.5 μM) with increasing concentrations of E-2 in water (5 mM phosphate buffer, pH 7.3). […]
The binding affinities of the counterion activators and peptide complexes were analyzed by indicator displacement assays. […] Firstly, the affinity for LCG was calculated for each of the activators, by titrations followed by fluorescence spectroscopy leading to almost full quenching of the emission. […]
Figure S26 - Fluorescence titration of the lucigenin dye with increasing concentrations of A) E-1 and B) Z–1 in water (5 mM phosphate buffer pH 7.3). […]

[1] = Light-modulated CF dye efflux assay (in situ irradiation at 500 nm); type: biochemical
Description: To this aim, Z-1 and Z-2 were added to EYPC-LUV⊃CF dispersions at fixed concentrations to study the CF release upon in situ light stimulation. […] Irradiation with 500 nm light promotes the conversion of Z-2 into E-2, a stronger counterion activator, leading to ca. 50% of extra dye released as a result of the light-triggered translocation of R6 into the liposome (Figure 4 iii).
Figure 4 (A) Light-modulated dye efflux assays performed with 4 μM R6, 60 nM Z-2, and 15 μΜ EYPC-LUV⊃CF (50 mM CF inside the liposome) and (B) schematization of each phase in the assay. (i) First, the activator Z-2 was added to a liposome solution (ii) followed by the addition of the peptide. (iii) The same sample was irradiated for 25 min at 500 nm, leading to a significant increase in CF release. (iv) Finally, in order to normalize the measurement for the maximum emission possible, the vesicles were lysed by addition of a small aliquot of Triton X-100. […]
until the emission stabilizes and a maximum of release is reached. If the counterion activator has the capacity to activate the transport, CF should be co-transported to the exterior of the liposome with the influx of the counterion-peptide complex. Finally, Triton X-100 is added to the solution to dissolve the vesicles and obtain the maximum amount of CF that could be released from the liposomes and emit in the […]
EC50 and Ymax values were calculated from the values of corrected emission at the plateau that is reached, according to previously reported assays.7
Light-activated release assays. The light-modulation offered by this novel counterion activator was tested by performing dye efflux assays as previously described, with the addition of an interval in the measurement where the solution was irradiated at 500 nm. […]
Figure S44 - Light-modulated dye efflux assays done with the peptide A) R6, 4 µM, and B) R8, 5 µM, with a fixed concentration of Z-1 of 0.20 µM for both assays. 40 µM of EYPC-LUV and 20 µΜ EYPC-LUV⊃CF (50 mM of CF) were used in the first assay and 30 µM of EYPC-LUV and 7 µΜ EYPC-LUV⊃CF (50 mM of CF) were used in the latter. The assay was performed in the same way as the dye release assays (addition of the peptide marked with a red dashed arrow) with an additional irradiation step for an interval of 30 to 40 min (marked with a black arrow), leading to an increase in release of ~15% for the peptide R6 and only 7% for the peptide R8. […]
Figure S45 - Light-modulated dye efflux assay done with the peptide R8, 4 µM, with a fixed concentration of Z-2 of 16 nM. 15 µΜ of EYPC-LUV⊃CF (50 mM of CF) were used and the light activation step was done with a single 25 min irradiation cycle at 500 nm (marked with a black arrow). The increase of release obtained was of 14%. […]

O=S(=O)([O-])c1cc2c(O)c(c1)Cc1cc(S(=O)(=O)[O-])cc(c1O)Cc1cc(S(=O)(=O)[O-])cc(c1OCCCCCCOc1ccc(/N=N/c3ccccc3)cc1)Cc1cc(S(=O)(=O)[O-])cc(c1O)C2.[Li+].[Li+].[Li+].[Li+] [E-1]
Apparent affinity constant K for R6 (hexaarginine (R6)): >5 × 10^8 ^a M^–1

CCCCc1ccc(/N=N/c2ccc(OCCCOc3c4cc(S(=O)(=O)[O-])cc3Cc3cc(S(=O)(=O)[O-])cc(c3O)Cc3cc(S(=O)(=O)[O-])cc(c3O)Cc3cc(S(=O)(=O)[O-])cc(c3O)C4)cc2)cc1.[Li+].[Li+].[Li+].[Li+] [E-2]
Apparent affinity constant K for R6 (hexaarginine (R6)): >5 × 10^8 ^a M^–1

O=S(=O)([O-])c1cc2c(O)c(c1)Cc1cc(S(=O)(=O)[O-])cc(c1O)Cc1cc(S(=O)(=O)[O-])cc(c1OCCCCCCOc1ccc(/N=N\c3ccccc3)cc1)Cc1cc(S(=O)(=O)[O-])cc(c1O)C2.[Li+].[Li+].[Li+].[Li+] [Z-1]
Increase in CF release upon irradiation, R6 ([1]; 4 µM R6, 0.20 µM Z-1, 40 µM EYPC-LUV and 20 µM EYPC-LUV⊃CF (50 mM CF), irradiation 30 to 40 min at 500 nm): ~ 15%
Increase in CF release upon irradiation, R8 ([1]; 5 µM R8, 0.20 µM Z-1, 30 µM EYPC-LUV and 7 µM EYPC-LUV⊃CF (50 mM CF), irradiation 30 to 40 min at 500 nm): 7%

CCCCc1ccc(/N=N\c2ccc(OCCCOc3c4cc(S(=O)(=O)[O-])cc3Cc3cc(S(=O)(=O)[O-])cc(c3O)Cc3cc(S(=O)(=O)[O-])cc(c3O)Cc3cc(S(=O)(=O)[O-])cc(c3O)C4)cc2)cc1.[Li+].[Li+].[Li+].[Li+] [Z-2]
Extra dye released upon irradiation at 500 nm, R6 ([1]; 4 μM R6, 60 nM Z-2, 15 μM EYPC-LUV⊃CF (50 mM CF), irradiated 25 min at 500 nm): ca. 50%
Increase in CF release upon irradiation, R8 ([1]; 4 µM R8, 16 nM Z-2, 15 µM EYPC-LUV⊃CF (50 mM CF), single 25 min irradiation cycle at 500 nm): 14%
